# Experimental data taken from PubChem BioAssay (NCI).
#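 Exposure lasted 48 hours, with cells grown in 96-well plates and compounds tested at five concentrations. GI50: concentration for 50% inhibition of growth. TGI marks complete inhibition of growth.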
# Experiments:
# Experiment in all cases: inhibition of tumour cell growth, NCI panel, 48 h
# MOLT-4 leukemia = test system: MOLT-4 leukemia
# MDA-MB-231 breast = test system: MDA-MB-231 breast
# OVCAR-5 ovarian = test system: OVCAR-5 ovarian
# SK-OV-3 ovarian = test system: SK-OV-3 ovarian
# A498 renal = test system: A498 renal
# K-562 leukemia = test system: K-562 leukemia
# U251 CNS = test system: U251 CNS
# RPMI-8226 leukemia = test system: RPMI-8226 leukemia
# SF-295 CNS = test system: SF-295 CNS
# NCI-H23 lung = test system: NCI-H23 lung
Compound,GI50 (MOLT-4 leukemia) [µM],TGI (MOLT-4 leukemia) [µM],GI50 (MDA-MB-231 breast) [µM],TGI (MDA-MB-231 breast) [µM],GI50 (OVCAR-5 ovarian) [µM],TGI (OVCAR-5 ovarian) [µM],GI50 (SK-OV-3 ovarian) [µM],TGI (SK-OV-3 ovarian) [µM],GI50 (A498 renal) [µM],TGI (A498 renal) [µM],GI50 (K-562 leukemia) [µM],TGI (K-562 leukemia) [µM],GI50 (U251 CNS) [µM],TGI (U251 CNS) [µM],GI50 (RPMI-8226 leukemia) [µM],TGI (RPMI-8226 leukemia) [µM],GI50 (SF-295 CNS) [µM],TGI (SF-295 CNS) [µM],GI50 (NCI-H23 lung) [µM],TGI (NCI-H23 lung) [µM]
CC/C(=C(\CC)c1ccc(OCCN(CC)CC)cc1)c1ccc(OCCN(CC)CC)cc1,3.62,18.2,1.76,5.82,3.96,17.7,3.48,12,0.76,3.31,1.79,10.5,1.87,8.99,1.42,4.63,1.37,3.91,5.77,21.8
ON(CCc1ccccn1)Cc1ccccc1,,> 100,,> 100,,> 100,,> 100,,> 100,,> 100,,> 100,,> 100,,> 100,,> 100
CCCC(=O)NNc1[nH]c(-c2ccc(OC)cc2)cc1C(=O)OCC,6.52,> 100,16.6,30.2,23.7,44.4,> 100,> 100,35.3,> 100,9.61,> 100,29.5,> 100,16.8,86.2,38,> 100,14.9,38
O=C(O)CC1(C(=O)O)CCCCC1,,> 100,,> 100,,> 100,,> 100,,> 100,,> 100,,> 100,,> 100,,> 100,,> 100
Cc1ccc2sc3c(NCCCNCCO)nc4ccccc4c3c(=O)c2c1,1.81,3.55,1.56,3.04,1.62,3.16,1.45,3.02,1.44,3.49,1.36,3.72,1.6,3.18,1.57,3.38,1.77,3.24,1.74,3.35
O=C(/C=C\Sc1nccc(C(F)(F)F)n1)c1ccc(Br)cc1,4.44,16.2,19.1,44.4,21.8,70.7,> 100,> 100,> 100,> 100,15,44.1,25,72.8,2.24,4.63,> 100,> 100,22.8,52.6
CCOC(=O)c1c(Cl)c2c(n1Cc1cc(OC)cc(OC)c1)-c1oncc1CCC2,0.512,> 100,0.812,> 91.7,0.812,> 100,0.4,49.6,0.0797,0.605,0.225,> 100,0.351,> 100,0.383,> 100,0.246,1.8,0.607,> 100
